{
  "source": "patent US20210046063A1",
  "about": "(University of Kentucky Research Foundation, priority 2019, published 2021)",
  "molecules": {"B1": {"name": "recombinant Par-4: recombinant tumor suppressor Prostate Apoptosis Response-4 protein, binds receptor GRP78 (protein, UniProt Q96IZ0 1-340, looked up)", "PRKC apoptosis WT1 regulator …": "MATGGYRTSSGLGGSTTDFLEEWKAKREKMRAKQNPPGPAPPGGGSSDAAGKPPAGALGTPAAAAANELNNNLPGGAPAAPAVPGPGGVNCAVGSAMLTRAAPGPRRSEDEPPAASASAAPPPQRDEEEPDGVPEKGKSSGPSARKGKGQIEKRKLREKRRSTGVVNIPAAECLDEYEDDEAGQKERKREDAITQQNTIQNEAVNLLDPGSSYLLQEPPRTVSGRYKSTTSVSEEDVSSRYSRTDRSGFPRYNRDANVSGTLVSSSTLEKKIEDLEKEVVRERQENLRLVRLMQDKEEMIGKLKEEIDLLNRDLDDIEDENEQLKQENKTLLKVVGQLTR"}},
  "key": {"Par-4": {"test_system": "Par-4", "details": "cancer patients, Phase 1 clinical trials; cited from earlier work"}, "LLC1 cells": {"test_system": "LLC1 cells", "experiment": "LLC1-derived lung tumor nodules in mice", "format": "in vivo", "details": "FIG. 2", "method": "Mice were injected i.v. with LLC1 cells, and 24 h later injected i.p. with CQ (25 mg/kg body weight), CZT (10 mg/kg body weight), CQ+CZT (25 and 10 mg/kg, resp.) or vehicle once every day for 5 consecutive days. After 28 days, the lungs were scored for tumor nodules. *P<0.01 by Anova test."}, "[1]": {"test_system": "GRP78 on lung cancer cell surface", "experiment": "Analysis for GRP78 at the cell surface of lung cancer cells", "format": "cell-based", "details": "CZT (1 μM), 24 h, FIG. 1B", "text": "Analysis for GRP78 at the cell surface. Mean+SD shown. *P<0.01 by Anova or Student's t test. P>0.05 by Anova.\nA lack of cell surface […] expression may prevent secreted Par-4 from inducing apoptosis in cancer cells."}, "[2]": {"test_system": "lung cancer cell lines (A549/EML4-ALK, A549, A549TR, H1299, KP-7B)", "experiment": "Apoptosis of lung cancer cells (ICC for active caspase-3, scored by confocal microscopy)", "format": "cell-based", "details": "24 h", "method": "Lung cancer cells treated with vehicle, CQ (100 nM), CZT (25 μM), and a combination of CZT (1 μM) and CQ (25 nM) for 24 h."}, "Par-4 secretion": {"test_system": "Par-4 secretion", "details": "cited from earlier work"}},
  "note": "Entries after “also recorded” stand apart in the source; their conditions may differ.",
  "data": [
    {"molecule": "CCN(CCO)CCCC(C)Nc1ccnc2cc(Cl)ccc12", "note": "(stereo not drawn) [HCQ, hydroxychloroquine]", "values": [
      {"measurement": "Par-4 levels in plasma", "setting": "Par-4", "result": "elevated Par-4 levels in the plasma"},
      {"measurement": "apoptosis in patients' tumors", "setting": "Par-4", "result": "induced apoptosis in their tumors"}
    ]},
    {"molecule": "C[C@@H](Oc1cc(-c2cnn(C3CCNCC3)c2)cnc1N)c1c(Cl)ccc(F)c1Cl", "note": "[CZT, Crizotinib]", "values": [
      {"measurement": "inhibition of lung tumor growth (lung tumor nodules)", "setting": "LLC1 cells; LLC1 cells i.v., i.p. CQ 25 mg/kg, CZT 10 mg/kg, once daily for 5 days, lungs scored after 28 days", "result": "significant inhibition of lung tumor growth; also recorded: showed an effect"},
      {"measurement": "GRP78 expression at the cell surface", "setting": "[1]", "result": "upregulates GRP78 expression on the surface of lung cancer cells; also recorded: elevation of Par-4 receptor GRP78 on lung tumor cell surface"}
    ]},
    {"molecule": "CCN(CC)CCCC(C)Nc1ccnc2cc(Cl)ccc12", "note": "(stereo not drawn) [CQ, Chloroquine]", "values": [
      {"measurement": "apoptosis, CQ in conjunction with CZT added directly to cancer cells", "setting": "[2]; combination of CZT (1 μM) and CQ (25 nM), P>0.05, FIG. 1C", "result": "did not induce apoptosis"},
      {"measurement": "inhibition of lung tumor nodules by CQ in the presence of CZT, relative to CZT or CQ administered separately", "setting": "LLC1 cells; LLC1-derived nodules in mice, CQ 25 mg/kg + CZT 10 mg/kg i.p.", "result": "significantly greater inhibition"},
      {"measurement": "Par-4 secretion from lung cancer cells", "setting": "Par-4 secretion; lung cancer cells", "result": "did not show secretion of Par-4"},
      {"measurement": "Par-4 secretion from normal cells", "setting": "Par-4 secretion; normal cells, cell culture and mice", "result": "increased Par-4 secretion from normal cells"}
    ]},
    {"molecule": "B1", "values": [
      {"measurement": "apoptosis (active caspase-3 positive cells), CZT together with recombinant Par-4", "setting": "[2]; CZT (1 μM) + recombinant Par-4 (100 nM), A549/EML4-ALK, A549, A549TR, H1299, KP-7B cells, FIG. 1A", "result": "increased apoptosis"}
    ]}
  ]
}
